{"source": "patent US20250129018A1", "about": "“PLEUROMUTILIN DERIVATIVES CONTAINING CYCLOALKYL GROUP AND PREPARATION METHODS AND APPLICATIONS THEREOF” (priority 2023, published 2025)", "assay_in_all_cases": "MIC, two-fold serial dilution method", "key": {"[1]": {"test_system": "MRSA-337371", "type": "cell-based, Methicillin-resistant Staphylococcus aureus", "settings": "MRSA-337371", "description": "(§1) The pleuromutilin derivatives 1-4 prepared from Example 9 of the present disclosure were determined for their effect on Methicillin-resistant Staphylococcus aureus, Methicillin-resistant Staphylococcus epidermidis, standard strains of Staphylococcus aureus (S. aureus-29213 and S. aureus-25923), clinical strains 1-48 of S. aureus, Escherichia coli, S. agalactiae and S. dysgalactiae equisimilis (S. dysgalactiae-1, S. dysgalactiae-2, S. dysgalactiae-3) and minimum inhibitory concentration (MIC) using a two-fold serial dilution method, and the results were shown in Table 1, Table 2 and Table 3. The standard strains are commercially available from ATCC, and the clinical strains are preserved by Lanzhou Institute of Husbandry and Pharmaceutical Science of Chinese Academy of Agricultural Sciences (Lanzhou, Gansu, China)."}, "[2]": {"test_system": "MRSE", "type": "cell-based, Methicillin-resistant Staphylococcus epidermidis", "description": "as §1"}, "[3]": {"test_system": "S. aureus-25923", "type": "cell-based, Staphylococcus aureus", "settings": "S. aureus-25923", "description": "as §1"}, "[4]": {"test_system": "S. aureus-29213", "type": "cell-based, Staphylococcus aureus", "settings": "S. aureus-29213", "description": "as §1"}, "[5]": {"test_system": "E. coli-25922", "type": "cell-based, Escherichia coli", "settings": "E. coli-25922", "description": "as §1"}, "[6]": {"test_system": "S. agalactiae-1", "type": "cell-based", "settings": "S. agalactiae-1", "description": "as §1"}, "[7]": {"test_system": "S. dysgalactiae-1", "type": "cell-based, S. dysgalactiae equisimilis", "settings": "S. dysgalactiae-1", "description": "as §1"}, "[8]": {"test_system": "S. dysgalactiae-2", "type": "cell-based, S. dysgalactiae equisimilis", "settings": "S. dysgalactiae-2", "description": "as §1"}, "[9]": {"test_system": "S. dysgalactiae-3", "type": "cell-based, S. dysgalactiae equisimilis", "settings": "S. dysgalactiae-3", "description": "as §1"}}, "data": [{"smiles": "C=CC1(C)CC(OC(=O)CSC(C)(C)CNC(=O)C2CC2)C2(C)C(C)CCC3(CCC(=O)C32)C(C)C1O", "note": "(stereo not drawn) [derivative 1]", "values": [{"measurement": "minimum inhibitory concentration", "setting": "[1]", "result": 0.031, "unit": "µg/mL"}, {"measurement": "minimum inhibitory concentration", "setting": "[2]", "result": 0.031, "unit": "µg/mL"}, {"measurement": "minimum inhibitory concentration", "setting": "[3]", "result": 0.031, "unit": "µg/mL"}, {"measurement": "minimum inhibitory concentration", "setting": "[4]", "result": 0.031, "unit": "µg/mL"}, {"measurement": "minimum inhibitory concentration", "setting": "[5]", "result": ">16", "unit": "µg/mL"}, {"measurement": "minimum inhibitory concentration", "setting": "[6]", "result": 0.031, "unit": "µg/mL"}, {"measurement": "minimum inhibitory concentration", "setting": "[7]", "result": 0.031, "unit": "µg/mL"}, {"measurement": "minimum inhibitory concentration", "setting": "[8]", "result": 0.031, "unit": "µg/mL"}, {"measurement": "minimum inhibitory concentration", "setting": "[9]", "result": 0.031, "unit": "µg/mL"}]}, {"smiles": "C=CC1(C)CC(OC(=O)CSC(C)(C)CNC(=O)C2CCCC2)C2(C)C(C)CCC3(CCC(=O)C32)C(C)C1O", "note": "(stereo not drawn) [derivative 3]", "values": [{"measurement": "minimum inhibitory concentration", "setting": "[1]", "result": 0.25, "unit": "µg/mL"}, {"measurement": "minimum inhibitory concentration", "setting": "[2]", "result": 0.25, "unit": "µg/mL"}, {"measurement": "minimum inhibitory concentration", "setting": "[3]", "result": 0.125, "unit": "µg/mL"}, {"measurement": "minimum inhibitory concentration", "setting": "[4]", "result": 0.125, "unit": "µg/mL"}, {"measurement": "minimum inhibitory concentration", "setting": "[5]", "result": ">16", "unit": "µg/mL"}, {"measurement": "minimum inhibitory concentration", "setting": "[6]", "result": 0.125, "unit": "µg/mL"}, {"measurement": "minimum inhibitory concentration", "setting": "[7]", "result": 0.125, "unit": "µg/mL"}, {"measurement": "minimum inhibitory concentration", "setting": "[8]", "result": 0.125, "unit": "µg/mL"}, {"measurement": "minimum inhibitory concentration", "setting": "[9]", "result": 0.125, "unit": "µg/mL"}]}, {"smiles": "C=CC1(C)CC(OC(=O)CSC(C)(C)CNC(=O)C2CCCCC2)C2(C)C(C)CCC3(CCC(=O)C32)C(C)C1O", "note": "(stereo not drawn) [derivative 4]", "values": [{"measurement": "minimum inhibitory concentration", "setting": "[1]", "result": 0.125, "unit": "µg/mL"}, {"measurement": "minimum inhibitory concentration", "setting": "[2]", "result": 0.25, "unit": "µg/mL"}, {"measurement": "minimum inhibitory concentration", "setting": "[3]", "result": 0.125, "unit": "µg/mL"}, {"measurement": "minimum inhibitory concentration", "setting": "[4]", "result": 0.125, "unit": "µg/mL"}, {"measurement": "minimum inhibitory concentration", "setting": "[5]", "result": ">16", "unit": "µg/mL"}, {"measurement": "minimum inhibitory concentration", "setting": "[6]", "result": 0.125, "unit": "µg/mL"}, {"measurement": "minimum inhibitory concentration", "setting": "[7]", "result": 0.125, "unit": "µg/mL"}, {"measurement": "minimum inhibitory concentration", "setting": "[8]", "result": 0.125, "unit": "µg/mL"}, {"measurement": "minimum inhibitory concentration", "setting": "[9]", "result": 0.125, "unit": "µg/mL"}]}]}
